Patent publication US20240050560A1, “SELF-SUSTAINED RELEASE IMMUNE ADJUVANT SUSPENSION, PREPARATION METHOD THEREFOR, AND USE THEREOF” (priority 2020, published 2024)
Structures can show the parent of a compound that is named as a salt. Blank lines part the entries; values can stand above or below the molecule they belong to.

Tests used:
tumor cells = experiment: Micron-sized imiquimod suspension in combination with ethanol ablation, subcutaneous tumor model; format: in vivo, mice; conditions: imiquimod suspension 12 mg/mL peritumoral; absolute ethanol 30 μL intratumoral
Excerpt: First, a subcutaneous tumor model in mice was established. In particular, mice were inoculated with tumor cells on their back. Once the tumors grew to a volume of 100 mm^3, the mice were randomly divided into 5 groups with 5 mice in each group.
The mice were monitored for the changes in tumor volumes, and the curves of tumor growth were plotted.

mouse colon CT26 tumor = experiment: Oxaliplatin chemotherapy combined with imiquimod micro-formulation, in-situ and distal tumor growth; format: in vivo, mice; conditions: intratumoral injection, chemotherapeutic alone
Method: The length and width of the tumor in mice were regularly measured, and the volume of tumor was calculated as follows: (length×(width) 2)/2.

[1] = Platinum in blood and organs (ICP-MS) after intratumoral oxaliplatin with or without imiquimod suspension; conditions: platinum in blood after intratumoral injection
Excerpt: Mice were inoculated with colon cancer (CT26) tumor cells on the back of the tumor in mice to establish a subcutaneous tumor model in mice.

[2] = system: colon cancer (CT26) tumors; experiment: Oxaliplatin in combination with micron-sized imiquimod suspension, two-sided tumor model; format: in vivo, mice; conditions: Day 15 after treatment; 30 μL intratumoral; oxaliplatin 4 mg/mL, imiquimod 6 mg/mL
Method: Mice were inoculated with different amounts of colon cancer (CT26) tumors on both sides of the back in mice (the inoculated amount on the left side was ⅕ of that on the right side) to establish a subcutaneous two-sided tumor model, wherein the tumor on the right side was deemed an in-situ tumor, and that on the left right was deemed a distal tumor. Once the in-situ tumors reached a size of about 100 mm^3, the mice were randomly divided into 4 groups, which were treated respectively.
On Day 1 of the treatment, the in-situ tumor was administered by intratumoral injection, wherein the concentration of oxaliplatin was 4 mg/mL, and the concentration of imiquimod was 6 mg/mL. After administration, the tumor volume in mice was recorded to plotted a growth curve of ice.

in vivo [3] = conditions: mouse, whole blood, 6 mg/kg
Method: Water-insoluble R837 powder was prepared into microparticles with a particle size of 1-3 microns, which were intratumorally injected and then monitored for the pharmacokinetics and intratumoral retention time.
Experimental method: Mice were transplanted with mouse colon cancer (CT26) tumor on their backs, and randomly divided to 3 groups with 3 mice in each group for the pharmacokinetic study.
Group 1: The mice were intratumorally injected with micromolecule imiquimod hydrochloride with an injection dose of 6 mg/kg.
Group 2: The mice were intratumorally injected with imiquimod/PLGA nano-particles (with an average particle size of about 100 nm) with an injection dose of 6 mg/kg.
Group 3: The mice were intratumorally injected with imiquimod microparticles (the present formulation) with an injection dose of 6 mg/kg.

[4] = 72 h after intratumoral injection, 6 mg/kg, CT26 mice
Method: Experimental method: Mice were transplanted with mouse colon cancer (CT26) tumor on their backs, and randomly divided to 3 groups with 3 mice in each group for the study of drug distribution behavior. • Group 1: The mice were intratumorally injected with the micromolecule imiquimod hydrochloride with an injection dose of 6 mg/kg; • Group 2: The mice were intratumorally injected with imiquimod nano-particles (with average particle size of about 100 nm) encapsulated with polylactic-glycolic acid copolymer (PLGA) with an injection dose of 6 mg/kg; and • Group 3: The mice were intratumorally injected with imiquimod microparticles (the present formulation) with an injection dose of 6 mg/kg.

in vivo [5] = conditions: mouse, whole blood
Excerpt: Mice were inoculated with CT26 tumor cells on their back to establish a CT26 subcutaneous tumor model of mice. Mice with the same tumor size were equally divided to 3 groups with 3 mice in each group.

SMILES: CCO [absolute ethanol, ethanol]
Tumor growth / tumor volumes (FIG. 14) (tumor cells): not highly different from those of the control group

SMILES: O=C1[O][Pt]2([NH][C@@H]3CCCC[C@H]3[NH]2)[O]C1=O [OXA, oxaliplatin]
Growth of distal tumors (FIG. 11) (mouse colon CT26 tumor): does not produce significant inhibitory effect | Growth of in-situ tumors (FIG. 10) (mouse colon CT26 tumor): can inhibit the growth of in-situ tumors | Tmax (H) [1]: 3 H | Tumor Inhibition Rate, Distant tumor [2]: 41.87% | Tumor Inhibition Rate, In-situ tumor [2]: 69.56%

Blood concentration of drug (at 48 h and 72 h after intratumoral injection 6 mg/kg): below the limit of detection | Average Retention Time (intratumoral injection 6 mg/kg, CT26 mice, average of 3): 11 h | half-life (in vivo [3]): 12 h | Retention of imiquimod in tumor and main organs (FIG. 3) [4]: extremely low overall retention | AUC (in vivo [5]): 140 ng·h/mL | Cmax (in vivo [5]): 17.4 ng/mL | Tmax (in vivo [5]): 0.5 h | half-life (in vivo [5]): 7.7 h
SMILES: CC(C)Cn1cnc2c(N)nc3ccccc3c21 [Micromolecule imiquimod hydrochloride, imiquimod hydrochloride]
